Measurements: US11739098B2 (BRISTOL-MYERS SQUIBB COMPANY, priority 2017, dated 2023)

Key:
Type in all cases: cell-based
human TLR8 = molecular target: T1, human TLR8 (Homo sapiens, UniProt Q9NR97); assay: TLR8 inhibition reporter assay (HEK-Blue cells, SEAP reporter, R848 stimulation); settings: HEK-Blue cells overexpressing human TLR8, SEAP reporter, R848 15.9 μM
T1 construct: host or cells: HEK-Blue cells (HEK293-derived reporter line)
T1 sequence (Q9NR97 27-1041): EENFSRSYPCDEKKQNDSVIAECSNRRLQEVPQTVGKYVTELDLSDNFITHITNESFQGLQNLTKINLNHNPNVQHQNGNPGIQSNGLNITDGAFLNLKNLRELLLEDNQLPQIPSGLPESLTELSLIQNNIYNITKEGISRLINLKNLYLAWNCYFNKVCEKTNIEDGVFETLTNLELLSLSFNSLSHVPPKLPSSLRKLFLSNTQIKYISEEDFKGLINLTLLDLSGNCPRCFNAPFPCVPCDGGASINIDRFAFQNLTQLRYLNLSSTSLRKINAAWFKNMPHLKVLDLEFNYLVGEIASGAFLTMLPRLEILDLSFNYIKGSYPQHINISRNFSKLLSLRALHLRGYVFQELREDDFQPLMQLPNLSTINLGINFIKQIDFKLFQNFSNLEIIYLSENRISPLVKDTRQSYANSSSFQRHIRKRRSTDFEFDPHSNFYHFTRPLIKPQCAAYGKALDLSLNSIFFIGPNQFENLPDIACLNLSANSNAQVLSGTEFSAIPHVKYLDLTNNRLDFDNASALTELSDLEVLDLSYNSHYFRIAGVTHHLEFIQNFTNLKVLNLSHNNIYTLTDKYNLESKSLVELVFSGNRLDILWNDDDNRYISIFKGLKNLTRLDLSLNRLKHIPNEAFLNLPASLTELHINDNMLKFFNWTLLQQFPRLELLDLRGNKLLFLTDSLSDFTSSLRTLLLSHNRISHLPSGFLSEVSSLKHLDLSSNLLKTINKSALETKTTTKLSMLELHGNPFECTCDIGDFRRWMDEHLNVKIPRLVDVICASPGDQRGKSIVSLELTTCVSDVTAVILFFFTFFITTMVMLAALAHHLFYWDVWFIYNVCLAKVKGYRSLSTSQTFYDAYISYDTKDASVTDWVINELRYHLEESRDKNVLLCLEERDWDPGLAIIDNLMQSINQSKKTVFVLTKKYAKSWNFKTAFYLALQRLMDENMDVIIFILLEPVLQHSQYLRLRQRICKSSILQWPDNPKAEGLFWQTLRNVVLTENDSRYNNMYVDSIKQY
Procedure, shortened: (§1)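 Agonists (final): TLR7 gardiquimod 7.5 μM; TLR8 R848 15.9 μM; TLR9 ODN2006 5 nM. HEK-Blue reporter cells, 30 min RT compound pre-incubation, 0.05 nM–50 μM dose range, 22 h at 37 °C, colorimetric SEAP detection medium. % inhibition relative to agonist+DMSO and known-inhibitor wells.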

human TLR7 = molecular target: T2, human TLR7 (Homo sapiens, UniProt Q9NYK1); assay: TLR7 inhibition reporter assay (HEK-Blue cells, SEAP reporter, gardiquimod stimulation); settings: HEK-Blue cells overexpressing human TLR7, SEAP reporter, gardiquimod 7.5 μM
T2 construct: host or cells: HEK-Blue cells (HEK293-derived reporter line)
T2 sequence (Q9NYK1 27-1049): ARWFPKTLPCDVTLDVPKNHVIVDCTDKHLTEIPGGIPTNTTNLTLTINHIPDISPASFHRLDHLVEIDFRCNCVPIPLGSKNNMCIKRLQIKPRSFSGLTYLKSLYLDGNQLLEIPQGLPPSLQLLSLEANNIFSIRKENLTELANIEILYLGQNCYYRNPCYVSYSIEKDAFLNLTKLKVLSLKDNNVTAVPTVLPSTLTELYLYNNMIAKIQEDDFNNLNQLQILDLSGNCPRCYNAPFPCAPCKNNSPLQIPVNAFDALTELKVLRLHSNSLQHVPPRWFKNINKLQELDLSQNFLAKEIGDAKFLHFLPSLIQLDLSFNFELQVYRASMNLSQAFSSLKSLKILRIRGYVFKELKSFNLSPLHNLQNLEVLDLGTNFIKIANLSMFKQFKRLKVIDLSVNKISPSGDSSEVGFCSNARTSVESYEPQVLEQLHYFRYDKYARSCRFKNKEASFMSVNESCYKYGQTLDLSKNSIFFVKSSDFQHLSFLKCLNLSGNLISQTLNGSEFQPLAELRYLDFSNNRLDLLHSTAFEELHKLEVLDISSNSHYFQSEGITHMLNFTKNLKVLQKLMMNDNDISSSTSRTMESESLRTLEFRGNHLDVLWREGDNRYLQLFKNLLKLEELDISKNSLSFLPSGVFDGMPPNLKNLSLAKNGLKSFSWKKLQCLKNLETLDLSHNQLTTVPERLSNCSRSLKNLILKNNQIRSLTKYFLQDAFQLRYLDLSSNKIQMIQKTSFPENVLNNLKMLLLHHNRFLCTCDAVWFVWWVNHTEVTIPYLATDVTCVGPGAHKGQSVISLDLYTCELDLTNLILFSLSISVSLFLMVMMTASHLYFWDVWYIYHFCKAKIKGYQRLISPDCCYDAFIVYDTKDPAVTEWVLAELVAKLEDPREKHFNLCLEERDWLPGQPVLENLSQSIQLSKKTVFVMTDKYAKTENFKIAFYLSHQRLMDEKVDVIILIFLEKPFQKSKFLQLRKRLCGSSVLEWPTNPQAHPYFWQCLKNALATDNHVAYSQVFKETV
Procedure, shortened: as §1

human TLR9 = molecular target: T3, human TLR9 (Homo sapiens, UniProt Q9NR96); assay: TLR9 inhibition reporter assay (HEK-Blue cells, SEAP reporter, ODN2006 stimulation); settings: HEK-Blue cells overexpressing human TLR9, SEAP reporter, ODN2006 5 nM
T3 construct: host or cells: HEK-Blue cells (HEK293-derived reporter line)
T3 sequence (Q9NR96 26-1032): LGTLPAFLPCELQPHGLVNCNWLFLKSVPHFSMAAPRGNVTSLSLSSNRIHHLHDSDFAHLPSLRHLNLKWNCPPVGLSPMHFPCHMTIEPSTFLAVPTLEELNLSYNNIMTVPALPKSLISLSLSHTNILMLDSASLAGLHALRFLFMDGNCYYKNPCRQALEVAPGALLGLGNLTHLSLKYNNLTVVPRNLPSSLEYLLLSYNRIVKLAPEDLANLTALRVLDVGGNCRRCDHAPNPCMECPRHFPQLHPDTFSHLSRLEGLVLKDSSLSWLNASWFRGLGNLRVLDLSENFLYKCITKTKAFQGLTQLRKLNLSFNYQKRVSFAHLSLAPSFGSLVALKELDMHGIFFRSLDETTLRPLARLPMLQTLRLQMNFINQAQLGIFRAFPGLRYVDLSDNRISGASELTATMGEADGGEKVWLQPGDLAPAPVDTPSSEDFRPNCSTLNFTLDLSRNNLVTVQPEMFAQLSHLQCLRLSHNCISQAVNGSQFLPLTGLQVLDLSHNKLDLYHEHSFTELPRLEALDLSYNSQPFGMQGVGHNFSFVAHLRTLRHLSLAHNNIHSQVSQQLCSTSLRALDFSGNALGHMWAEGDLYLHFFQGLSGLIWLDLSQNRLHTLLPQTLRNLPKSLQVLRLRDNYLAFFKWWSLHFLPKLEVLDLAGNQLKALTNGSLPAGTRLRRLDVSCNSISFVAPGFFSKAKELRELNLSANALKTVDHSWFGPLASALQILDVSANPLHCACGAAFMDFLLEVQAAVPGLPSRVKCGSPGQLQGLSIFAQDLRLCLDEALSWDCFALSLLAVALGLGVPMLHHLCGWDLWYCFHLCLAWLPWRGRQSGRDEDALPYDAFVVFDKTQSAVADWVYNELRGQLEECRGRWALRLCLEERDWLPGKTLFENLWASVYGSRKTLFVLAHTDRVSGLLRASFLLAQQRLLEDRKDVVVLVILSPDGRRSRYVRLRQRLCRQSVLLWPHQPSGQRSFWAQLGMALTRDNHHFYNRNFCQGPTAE
Procedure, shortened: as §1

IC50 (human TLR8)	IC50 (human TLR7)	IC50 (human TLR9)	SMILES
< 100 nM	< 100 nM	1000 to 50000 nM	Cc1cc(-c2[nH]c3ccc(C4CCN(C5COC5)CC4)cc3c2C(C)C)nc2scnc12 [Example 718, 5-(3-isopropyl-5-(1-(oxetan-3-yl)piperidin-4-yl)-1H-indol-2-yl)-7-methylthiazolo[5,4-b]pyridine]
100 to 1000 nM	100 to 1000 nM	100 to 1000 nM	Cc1cc(-c2c[nH]c3nccc(-c4[nH]c5ccc(C6CCNCC6)cc5c4C)c23)n(C)n1 [Example 225, 3-(1,3-dimethyl-1H-pyrazol-5-yl)-4-(3-methyl-5-(piperidin-4-yl)-1H-indol-2-yl)-1H-pyrrolo[2,3-b]pyridine]
1000 to 50000 nM	1000 to 50000 nM	1000 to 50000 nM	CCc1c(-c2ccnc3nn[nH]c23)[nH]c2ccc(C3CCNCC3)cc12 [Example 56, 7-(3-ethyl-5-(piperidin-4-yl)-1H-indol-2-yl)-1H-[1,2,3]triazolo[4,5-b] pyridine]
100 to 1000 nM	100 to 1000 nM	1000 to 50000 nM	FC(F)Cc1c(-c2ccnc3[nH]ncc23)[nH]c2ccc(C3CCNCC3)cc12 [Example 178, 4-(3-(2,2-difluoroethyl)-5-(piperidin-4-yl)-1H-indol-2-yl)-1H-pyrazolo[3,4-b]pyridine]
100 to 1000 nM	< 100 nM	1000 to 50000 nM	Cc1cc2ncccc2cc1-c1[nH]c2ccc(C3CCNCC3)cc2c1C(C)C [Example 140, 6-(3-isopropyl-5-(piperidin-4-yl)-1H-indol-2-yl)-7-methylquinoline]
< 100 nM	< 100 nM	1000 to 50000 nM	CC(C)c1c(-c2cc(F)c3nccn3c2)[nH]c2ccc(C3CCN(C(=O)CN(C)C)CC3)cc12 [Example 544, 2-(dimethylamino)-1-(4-(2-(8-fluoroimidazo[1,2-a]pyridin-6-yl)-3-isopropyl-1H-indol-5-yl)piperidin-1-yl)ethan-1-one]
< 100 nM	< 100 nM	100 to 1000 nM	Cc1nnn2ccc(-c3[nH]c4ccc(C5CCN(C6CCOCC6)CC5)cc4c3C(C)C)cc12 [Example 700, 5-(3-isopropyl-5-(1-(tetrahydro-2H-pyran-4-yl)piperidin-4-yl)-1H-indol-2-yl)-3-methyl-[1,2,3]triazolo[1,5-a]pyridine]
1000 to 50000 nM	< 100 nM	> 50000 nM	CC(C)c1c(-c2cc(F)c3nccn3c2)[nH]c2ccc(C3CCN(C(=O)C[C@@H](C)O)CC3)cc12 [Example 605, (R)-1-(4-(2-(8-fluoroimidazo[1,2-a]pyridin-6-yl)-3-isopropyl-1H-indol-5-yl)piperidin-1-yl)-3-hydroxybutan-1-one]
< 100 nM	< 100 nM	100 to 1000 nM	CC(C)c1c(-c2ccnc3[nH]ncc23)[nH]c2ccc(C3CCN(Cc4ccc(OCCCN(C)C)cc4)CC3)cc12 [Example 965, 3-(4-((4-(3-isopropyl-2-(1H-pyrazolo[3,4-b]pyridin-4-yl)-1H-indol-5-yl)piperidin-1-yl)methyl)phenoxy)-N,N-dimethylpropan-1-amine]
< 100 nM	100 to 1000 nM	100 to 1000 nM	CCc1ncc(CN2CCC(c3ccc4[nH]c(-c5ccnc6[nH]ncc56)c(CC)c4c3)CC2)[nH]1 [Example 915, 4-(3-ethyl-5-(1-((2-ethyl-1H-imidazol-5-yl)methyl)piperidin-4-yl)-1H-indol-2-yl)-1H-pyrazolo[3,4-b]pyridine]
< 100 nM	< 100 nM	1000 to 50000 nM	Cc1cc(-c2[nH]c3ccc(C4CCN(CC(N)=O)CC4)cc3c2C(C)C)cc2cnnn12 [Example 321, 2-(4-(3-isopropyl-2-(7-methyl-[1,2,3]triazolo[1,5-a]pyridin-5-yl)-1H-indol-5-yl)piperidin-1-yl)acetamide]
> 3130 nM	100 to 1000 nM	1000 to 50000 nM	CC(C)c1c(-c2nc3c(N)ncnc3[nH]2)[nH]c2ccc(C3CCNCC3)cc12 [Example 8, 8-(3-isopropyl-5-(piperidin-4-yl)-1H-indol-2-yl)-9H-purin-6-amine]
< 100 nM	100 to 1000 nM	1000 to 50000 nM	CCc1c(-c2ccnc3[nH]ncc23)[nH]c2ccc(C3CCN(Cc4cncn4C)CC3)cc12 [Example 911, 4-(3-ethyl-5-(1-((1-methyl-1H-imidazol-5-yl)methyl)piperidin-4-yl)-1H-indol-2-yl)-1H-pyrazolo[3,4-b]pyridine]
100 to 1000 nM	100 to 1000 nM	100 to 1000 nM	Cc1cnc2ccc(-c3[nH]c4ccc(C5CCN(C(=O)CN(C)C)CC5)cc4c3C(C)C)cn12 [Example 522, 2-(dimethylamino)-1-(4-(3-isopropyl-2-(3-methylimidazo[1,2-a]pyridin-6-yl)-1H-indol-5-yl)piperidin-1-yl)ethan-1-one]
